How the values were obtained:
[1] = Evaluation of the switching behaviour of ASHS systems (carboxylic acid/base/water) under air and 1 bar of CO2; assay type: physicochemical; details: for Behaviour of the system: base NaOH; for Behaviour of the system after CO2 addition / pH under 1 bar of CO2 / pH under air: 20° C.; for Phase behaviour upon addition of 1 bar of CO2: base Jeffamine D-230, TEA, DMEA or 3DMAP, base:acid mole ratio 1:1, water:acid mass ratio 15:1 and other ratios; for Phase behaviour upon addition of CO2 / Phases under air: substoichiometric aqueous NaOH, 0.6 to 0.7 equivalents of base
Experimental: Base solutions were prepared by combining the desired base and water (mass for components measured in an analytical scale) into either a 10 or 25 mL graduated cylinder (containing a magnetic stir bar) depending on the final volume of the mixture obtained. The carboxylic acid (mass measured using an analytical balance prior to addition) being studied was added to the base solution, and the mixture was mixed with the help of a magnetic stir plate. The amount of base and water used were selected based on the acid:base:water ratio desired. Experiments were carried out using stoichiometric and substoichiometric amounts of the base relative to the number of mols of acid added. In addition, the quantity of water used was adjusted based on the acid:water mass ratio desired. A typical experiment would contain 1 g of the carboxylic acid; between 0.4 and 1 mol of base per mol of acid; and a water mass varying from 1 to 9.5 g.
During a typical experiment, CO2 would be added for approximately 2 h at atmospheric pressure. At the end of the 2 h, the sparge tube would be removed, and the number and volume of the phases obtained would be recorded. The pH was once again recorded. For mixtures with only 1 phase, the pH of that phase was recorded. While for mixtures with 2 phases, the pH of the aqueous phase was recorded.
In the systems in which the base:acid mole ratio and the water:acid mass ratio were being studied, a slight modification from this method was used. The acid being tested (1 g) was mixed with 1 g of water and the required amount of NaOH (based on the acid:base molar ratio desired) to prepare the mixture. […]
The base solution was then added to the carboxylic acid, and the next steps followed the procedure previously described.

[2] = CPPA-EPS mixture, limited by viscosity; 60° C.
[3] = base 3DMAP, base:acid mole ratio 0.60:1, H2O:acid mass ratio 2.5:1
[4] = base DMEA, base:acid mole ratio 0.55:1, H2O:acid mass ratio 2.5:1
[5] = base Jeffamine D-230 (two moles acid per mole D-230), H2O:acid mass ratio 12:1, 1 bar CO2, partial = acid recovered smaller than mass added
[6] = base Jeffamine D-230 (two moles acid per mole D-230), H2O:acid mass ratio 12:1
[7] = base Jeffamine D-230 (two moles acid per mole D-230), H2O:acid mass ratio 15:1, 1 bar CO2, partial = acid recovered smaller than mass added
[8] = base Jeffamine D-230 (two moles acid per mole D-230), H2O:acid mass ratio 15:1
[9] = base MDEA, base:acid mole ratio 0.55:1, H2O:acid mass ratio 2.5:1
[10] = carboxylic acid:H2O mass ratio 1:2.5, carboxylic acid:NaOH mol ratio 1:0.8
[11] = base TEA, base:acid mole ratio 0.60:1, H2O:acid mass ratio 2.5:1
[12] = base 3DMAP, base:acid mole ratio 0.45:1, H2O:acid mass ratio 2.5:1
[13] = base DMEA, base:acid mole ratio 0.50:1, H2O:acid mass ratio 2.5:1
[14] = base MDEA, base:acid mole ratio 0.50:1, H2O:acid mass ratio 2.5:1
[15] = base TEA, base:acid mole ratio 0.40:1, H2O:acid mass ratio 2.5:1
[16] = base 3DMAP, base:acid mole ratio 0.55:1, H2O:acid mass ratio 2.5:1
[17] = base DMEA, base:acid mole ratio 0.60:1, H2O:acid mass ratio 2.5:1
[18] = base Jeffamine D-230 (two moles acid per mole D-230), H2O:acid mass ratio 1:1-9.5:1
[19] = base MDEA, base:acid mole ratio 0.65:1, H2O:acid mass ratio 2.5:1
[20] = base TEA, MDEA, DMEA or 3-DMAP, base:acid mol ratio 1:1, H2O:acid mass ratio 12:1-15:1
[21] = base TEA, base:acid mole ratio 0.65:1, H2O:acid mass ratio 2.5:1

SMILES: CC(C(=O)O)c1ccccc1 (centres unmarked) [2-phenylpropionic acid]
- Behaviour of the system ([1]; carboxylic acid:H2O mass ratio 1:2.5, carboxylic acid:NaOH mol ratio 1:0.5 and 1:0.6): Monophasic under

SMILES: CCCCCCCCC(CCCCCC)C(=O)O (centres unmarked) [2-hexyldecanoic acid]
- Behaviour of the system ([1]; carboxylic acid:H2O mass ratio 1:12, carboxylic acid:NaOH mol ratio 1:1): Biphasic under air

SMILES: CCCCC/C=C\C/C=C\CCCCCCCC(=O)O [Linoleic acid, linoleic acid]
- Behaviour of the system ([1]; carboxylic acid:H2O mass ratio 1:5, carboxylic acid:NaOH mol ratio 1:1): Biphasic under air

SMILES: CCCC(CCC)C(=O)O [PPA, 2-propylpentanoic acid]
- Behaviour of the system after CO2 addition ([1]; base 3DMAP, base:acid mole ratio 0.60:1, H2O:acid mass ratio 2.5:1, 1 bar CO2, threshold 50 vol % recovered): Phase separation above 50
- pH under 1 bar of CO2 [1, 3]: 6.70
- pH under air [1, 3]: 6.63
- Behaviour of the system after CO2 addition ([1]; base DMEA, base:acid mole ratio 0.55:1, H2O:acid mass ratio 2.5:1, 1 bar CO2, threshold 50 vol % recovered): Phase separation above 50
- pH under 1 bar of CO2 [1, 4]: 6.78
- pH under air [1, 4]: 6.70
- Behaviour of the system after CO2 addition [1, 5]: Partial phase separation
- pH under 1 bar of CO2 [1, 6]: 6.84
- pH under air [1, 6]: 7.86
- Behaviour of the system after CO2 addition [1, 7]: Partial phase separation
- pH under 1 bar of CO2 [1, 8]: 6.73
- pH under air [1, 8]: 8.43
- Phase behaviour upon addition of 1 bar of CO2 ([1]; MDEA): no phase separation was observed
- Behaviour of the system after CO2 addition ([1]; base MDEA, base:acid mole ratio 0.55:1, H2O:acid mass ratio 2.5:1, 1 bar CO2, threshold 50 vol % recovered): Phase separation above 50
- pH under 1 bar of CO2 [1, 9]: 6.69
- pH under air [1, 9]: 6.59
- Behaviour of the system [1, 10]: Switchable
- Behaviour of the system after CO2 addition ([1]; base TEA, base:acid mole ratio 0.60:1, H2O:acid mass ratio 2.5:1, 1 bar CO2): No phase separation
- pH under 1 bar of CO2 [1, 11]: 6.72
- pH under air [1, 11]: 6.51
- Phase behaviour upon addition of CO2 [1]: phase separation was observed
- Phases under air [1]: one phase

SMILES: CCCCCCCCC(=O)O [Nonanoic acid, nonanoic acid]
- Behaviour of the system ([1]; carboxylic acid:H2O mass ratio 1:2.5, carboxylic acid:NaOH mol ratio 1:0.7): Switchable

SMILES: CC(C)C(=O)O [Isobutyric acid, isobutyric acid]
- Behaviour of the system ([1]; carboxylic acid:H2O mass ratio 1:2.5, carboxylic acid:NaOH mol ratio 1:0.6): Monophasic under

SMILES: O=C(O)CCC1CCCC1 [CPPA, 3-cyclopentylpropionic acid]
- maximum polymer (EPS) loading attained in the carboxylic acid [2]: 50 wt %
- Behaviour of the system after CO2 addition ([1]; base 3DMAP, base:acid mole ratio 0.45:1, H2O:acid mass ratio 2.5:1, 1 bar CO2, threshold 50 vol % recovered): Phase separation above 50
- pH under 1 bar of CO2 [1, 12]: 6.02
- pH under air [1, 12]: 6.06
- Behaviour of the system after CO2 addition ([1]; base DMEA, base:acid mole ratio 0.50:1, H2O:acid mass ratio 2.5:1, 1 bar CO2): No phase separation
- pH under 1 bar of CO2 [1, 13]: 6.25
- pH under air [1, 13]: 6.22
- Behaviour of the system after CO2 addition [1, 5]: No phase separation
- pH under 1 bar of CO2 [1, 6]: 6.55
- pH under air [1, 6]: 7.00
- Behaviour of the system after CO2 addition [1, 7]: No phase separation
- pH under 1 bar of CO2 [1, 8]: 6.45
- pH under air [1, 8]: 6.94
- Phase behaviour upon addition of 1 bar of CO2 ([1]; MDEA): no phase separation was observed
- Behaviour of the system after CO2 addition ([1]; base MDEA, base:acid mole ratio 0.50:1, H2O:acid mass ratio 2.5:1, 1 bar CO2): No phase separation
- pH under 1 bar of CO2 [1, 14]: 6.23
- pH under air [1, 14]: 6.16
- Behaviour of the system ([1]; 2:1 H2O:acid mass ratio, 1 bar CO2, narrow range of base:acid ratio): successful switchable behaviour
- Behaviour of the system [1, 10]: Switchable
- Behaviour of the system after CO2 addition ([1]; base TEA, base:acid mole ratio 0.40:1, H2O:acid mass ratio 2.5:1, 1 bar CO2): No phase separation
- pH under 1 bar of CO2 [1, 15]: 6.04
- pH under air [1, 15]: 5.98
- Phase behaviour upon addition of CO2 [1]: phase separation was observed
- Phases under air [1]: one phase

SMILES: CCCCCC(=O)O [Hexanoic acid, hexanoic acid]
- Behaviour of the system ([1]; carboxylic acid:H2O mass ratio 2:1, carboxylic acid:NaOH mol ratio 1:0.6): Monophasic under

SMILES: CCCCCCCC/C=C\CCCCCCCC(=O)O [Oleic acid, oleic acid]
- Behaviour of the system ([1]; carboxylic acid:H2O mass ratio 1:10, carboxylic acid:NaOH mol ratio 1:1): Biphasic under air

SMILES: C=CCCCCCCCCC(=O)O [10-undecenoic acid]
- Behaviour of the system ([1]; carboxylic acid:H2O mass ratio 1:2.5, carboxylic acid:NaOH mol ratio 1:1): Switchable

SMILES: CCCCCCCC(=O)O [Octanoic acid, octanoic acid, reference compound]
- Behaviour of the system after CO2 addition ([1]; base 3DMAP, base:acid mole ratio 0.55:1, H2O:acid mass ratio 2.5:1, 1 bar CO2, threshold 50 vol % recovered): Phase separation below 50
- pH under 1 bar of CO2 [1, 16]: 6.46
- pH under air [1, 16]: 6.34
- Behaviour of the system after CO2 addition ([1]; base DMEA, base:acid mole ratio 0.60:1, H2O:acid mass ratio 2.5:1, 1 bar CO2, threshold 50 vol % recovered): Phase separation below 50
- pH under 1 bar of CO2 [1, 17]: 6.71
- pH under air [1, 17]: 6.86
- Behaviour of the system after CO2 addition ([1]; base Jeffamine D-230 (two moles acid per mole D-230), H2O:acid mass ratio 1:1-9.5:1, 1 bar CO2): No phase separation
- pH under 1 bar of CO2 [1, 18]: 6.85-7.60
- pH under air [1, 18]: 7.60-7.90
- Behaviour of the system after CO2 addition [1, 7]: Partial phase separation^b
- pH under 1 bar of CO2 [1, 8]: 6.70
- pH under air [1, 8]: 7.55
- Phase behaviour upon addition of 1 bar of CO2 ([1]; MDEA): no phase separation was observed
- Behaviour of the system after CO2 addition ([1]; base MDEA, base:acid mole ratio 0.65:1, H2O:acid mass ratio 2.5:1, 1 bar CO2): No phase separation
- pH under 1 bar of CO2 [1, 19]: 6.65
- pH under air [1, 19]: 6.69
- Behaviour of the system ([1]; carboxylic acid:H2O mass ratio 1:1.5 and 1:2.5, carboxylic acid:NaOH mol ratio 1:0.9): Switchable
- Behaviour of the system after CO2 addition ([1]; base TEA, MDEA, DMEA or 3-DMAP, base:acid mol ratio 1:1, H2O:acid mass ratio 12:1-15:1, 1 bar CO2): No phase separation
- pH under 1 bar of CO2 [1, 20]: 6.70-6.90
- pH under air [1, 20]: 7.60-7.70
- Behaviour of the system after CO2 addition ([1]; base TEA, base:acid mole ratio 0.65:1, H2O:acid mass ratio 2.5:1, 1 bar CO2): No phase separation
- pH under 1 bar of CO2 [1, 21]: 6.75
- pH under air [1, 21]: 6.68

— US12605653B2, “Anionic switchable hydrophilicity solvents” (QUEEN'S UNIVERSITY AT KINGSTON, priority 2022, dated 2026)
